Assay results from patent US7550603B2, “1H-benzimidazole-4-carboxamides substituted with a quaternary carbon at the 2-position are potent PARP inhibitors” (Abbott Laboratories Inc., priority 2005, dated 2009).
Where two headings read alike, the source gives them in different places. Marks after values point to notes of the source that are not given here.

Experiments:
Female BALB/c mice = test: Deaths following lipopolysaccharide (LPS) challenge; format: in vivo; conditions: 20 mg/kg LPS intravenous, monitored 72 hours
Description: Female BALB/c mice were dosed orally, twice a day with vehicle (0.2% HPMC), or drug at 30 mg/kg/day or 100 mg/kg/day. The mice were injected intravenous with 20 mg/kg LPS at 30 minutes after the first treatment dose. They were monitored for survival for 72 hours or until 80-90% lethality was observed.

[1] = biological target: Recombinant Human Poly(ADP-Ribose) Polymerase (PARP) (Homo sapiens, UniProt P09874); test: Inhibition of PARP (PARP1 assay, [3H]-NAD+ / biotinylated histone H1, FlashPlate); conditions: read-out: PARP Inhibition Ki; Table 1; quaternary and non-quaternary compounds
Description: Nicotinamide[2,5′,8-3H]adenine dinucleotide and strepavidin SPA beads were purchased from Amersham Biosiences (UK) Recombinant Human Poly(ADP-Ribose) Polymerase (PARP) purified from E. coli and 6-Biotin-17-NAD^+, were purchase from Trevigen, Gaithersburg, Md. NAD^+, Histone, aminobenzamide, 3-amino benzamide and Calf Thymus DNA (dcDNA) were purchased from Sigma, St. Louis, Mo. Stem loop oligonucleotide containing MCAT sequence was obtained from Qiagen. The oligos were dissolved to 1 mM in annealing buffer containing 10 mM Tris HCl pH 7.5, 1 mM EDTA, and 50 mM NaCl, incubated for 5 min at 95° C., and followed by annealing at 45° C. for 45 minutes. […] Biotinylated histone H1 was prepared by treating the protein with Sulfo-NHS-LC-Biotin from Pierce Rockford, Ill. The biotinylation reaction was conducted by slowly and intermittently adding 3 equivalents of 10 mM Sulfo-NHS-LC-Biotin to 100 μM Histone H1 in phosphate-buffered saline, pH 7.5, at 4° C. with gentle vortexing over 1 min followed by subsequent 4° C. incubation for 1 hr. Streptavidin coated (FlashPlate Plus) microplates were purchased from Perkin Elmer, Boston, Mass.
PARP1 assay was conducted in PARP assay buffer containing 50 mM Tris pH 8.0, 1 mM DTT, 4 mM MgCl2. […] Auto reactions utilizing SPA bead-based detection were carried out in 100 μl volumes in white 96 well plates.

[2] = tested on: peritoneum following zymosan challenge; conditions: peritoneal lavage four hours post zymosan (2 mg/animal)
Description: Compounds were administered orally before an intraperitoneal zymosan injection (2 mg/animal).

[3] = 30 mg/kg/day orally twice a day
[4] = 100 mg/kg/day orally twice a day

Recombinant Human Poly(ADP-Ribose) Polymerase (PARP), sequence (P09874 whole entry): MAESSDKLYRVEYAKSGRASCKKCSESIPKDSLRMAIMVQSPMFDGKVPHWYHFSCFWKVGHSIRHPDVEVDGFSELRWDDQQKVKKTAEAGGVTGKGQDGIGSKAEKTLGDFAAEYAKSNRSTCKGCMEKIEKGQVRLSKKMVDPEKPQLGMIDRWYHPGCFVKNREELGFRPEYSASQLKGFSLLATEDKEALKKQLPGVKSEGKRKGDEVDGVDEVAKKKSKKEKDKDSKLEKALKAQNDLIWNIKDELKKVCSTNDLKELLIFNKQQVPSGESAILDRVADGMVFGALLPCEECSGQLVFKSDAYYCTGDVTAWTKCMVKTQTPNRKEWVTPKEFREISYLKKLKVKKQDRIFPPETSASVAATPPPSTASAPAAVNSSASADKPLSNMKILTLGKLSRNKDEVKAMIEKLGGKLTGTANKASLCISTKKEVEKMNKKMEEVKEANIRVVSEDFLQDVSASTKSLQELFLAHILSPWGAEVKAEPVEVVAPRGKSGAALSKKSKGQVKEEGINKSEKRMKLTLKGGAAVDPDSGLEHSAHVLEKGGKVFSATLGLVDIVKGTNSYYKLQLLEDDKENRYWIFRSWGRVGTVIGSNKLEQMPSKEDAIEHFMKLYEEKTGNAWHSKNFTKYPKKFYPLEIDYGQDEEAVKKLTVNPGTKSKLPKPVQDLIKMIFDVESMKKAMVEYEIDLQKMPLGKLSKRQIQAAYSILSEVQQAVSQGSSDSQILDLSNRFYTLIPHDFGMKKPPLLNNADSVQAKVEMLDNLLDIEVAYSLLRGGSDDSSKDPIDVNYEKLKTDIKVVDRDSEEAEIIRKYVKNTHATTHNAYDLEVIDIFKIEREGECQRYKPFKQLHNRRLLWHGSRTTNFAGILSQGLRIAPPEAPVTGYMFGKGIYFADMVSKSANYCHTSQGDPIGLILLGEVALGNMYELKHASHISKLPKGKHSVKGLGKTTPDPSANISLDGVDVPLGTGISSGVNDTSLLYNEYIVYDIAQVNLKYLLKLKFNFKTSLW

C[C@@]1(c2nc3c(C(N)=O)cccc3[nH]2)CCCN1 [Example 4, 2-[(2S)-2-methylpyrrolidin-2-yl]-1H-benzimidazole-4-carboxamide]
Deaths following LPS challenge (lethality) (Female BALB/c mice; [3]): 8/10
Deaths following LPS challenge (lethality) (Female BALB/c mice; [4]): 4/10*

NC(=O)c1cccc2[nH]c(C3CCN(CCc4ccccc4)C3)nc12 (stereo not shown) [2-[1-(2-phenylethyl)pyrrolidin-3-yl]-1H-benzimidazole-4-carboxamide]
Ki [1]: 9.1 nM

CCCN1CCC(c2nc3c(C(N)=O)cccc3[nH]2)CC1 [2-(1-propylpiperidin-4-yl)-1H-benzimidazole-4-carboxamide]
Deaths following LPS challenge (lethality) (Female BALB/c mice; [3]): 8/10
Deaths following LPS challenge (lethality) (Female BALB/c mice; [4]): 9/10
Percent decrease in Cell Influx relative to control ([2]; 30 mg/kg orally): 0%
Percent decrease in IL-1 level relative to control ([2]; 30 mg/kg orally): 32%
Percent decrease in Cell Influx relative to control ([2]; 100 mg/kg orally): 23%
Percent decrease in IL-1 level relative to control ([2]; 100 mg/kg orally): 47%*

NC(=O)c1cccc2[nH]c(C3CCN3)nc12 (stereo not shown) [2-azetidin-2-yl-1H-benzimidazole-4-carboxamide]
Ki [1]: 34 nM
